These results are taken from patent US12297502B2, “Methods and compositions for detecting and diagnosing diseases and conditions” (Stealth BioTherapeutics Inc., priority 2013, dated 2025).

A value given as a limit tells only on which side of the number the result lay.

Data set [1] relates to heart mitochondrial cardiolipin. The experiment in a line: 18:2 cardiolipin in left ventricle heart muscle, dog model of heart failure (shotgun lipidomics). It counts as in vivo. The conditions noted are these: HF dogs, 0.5 mg/kg/day intravenously, 12 weeks, versus normal dogs (NL) and untreated HF dogs (HF-CON). The text has this:
In this Example, the effect of aromatic-cationic peptide such as D-Arg-2′6′-Dmt-Lys-Phe-NH2 on heart mitochondrial cardiolipin levels in dogs with coronary microembolization-induced heart failure will be investigated.
Heart failure will be induced in dogs via multiple sequential intracoronary microembolizations as described in Sabbah, et al., Am J Physiol. (1991) 260:H1379-84, herein incorporated by reference in its entirety. Half the dogs will be subsequently treated with the mitochondrial peptide; the other half will be treated with drug vehicle and serve as controls. Peptide treatment will be started upon induction of heart failure (HF), defined as left ventricular ejection fraction of approximately 30%. The daily dose of the peptide will be 0.5 mg/kg/day administered intravenously. At the end of the treatment phase (12 weeks) dogs in both the vehicle and treatment groups will be sacrificed and a sample of heart muscle from the left ventricle will be removed, washed with saline, and immediately frozen and stored at −80° C. For cardiolipin analysis, lipids will be extracted from the heart tissue sample with a chloroform/methanol solution (Bligh Dyer extraction). […]

The test system of a further data set is TAZ1 mRNA. The experiment in a line: TAZ1 mRNA in LV tissue by real-time PCR, dog model of heart failure. Type of data set: in vivo. The conditions noted are these: HF dogs, 0.5 mg/kg subcutaneous once daily, three months, normalized to GAPDH, printed as e.g. about ... or more. The text has this:
In this Example, the effect of the aromatic-cationic peptide D-Arg-2′6′-Dmt-Lys-Phe-NH2 on cardiolipin remodeling enzymes, MLCL AT1, ALCAT1, and TAZ1 in dogs with coronary microembolization-induced heart failure will be investigated.
Heart failure will be induced in dogs via multiple sequential intracoronary microembolizations as described in Sabbah, et al., Am J Physiol. (1991) 260:H1379-84, herein incorporated by reference in its entirety.
Twelve dogs will be subject to coronary microembolization-induced heart failure (LV ejection fraction ˜30%). Subjects will be randomized into D-Arg-2′6′-Dmt-Lys-Phe-NH2-treated and control groups for a three-month trial. Subjects will receive subcutaneous injections of D-Arg-2′6′-Dmt-Lys-Phe-NH2 (0.5 mg/kg once daily, n=6) or saline (Untreated-HF Control, n=6). RNA will be prepared from LV tissue of all subjects at the end of the treatment phase and from the LV of six normal subject controls. Levels of TAZ1 mRNA will be determined by real-time PCR. Changes in mRNA levels will be expressed as fold reduction using the CT Method, with normalization to a […] (GAPDH) internal control.
On the technique in general: Real-time PCR tracks product formation cycle by cycle.

The target of the next data set is mu-opioid receptor (Homo sapiens, UniProt P35372). In words: mu-opioid receptor agonist activity. The conditions noted are these: stated in the description, no test described.
Data set [2] concerns dogs with coronary microembolization-induced heart failure. The experiment in a line: LV function and mitochondrial ATP synthesis, dog model of heart failure. It counts as in vivo. The conditions noted are these: HF dogs, chronic treatment.
Data set [3] deals with plasma membrane of several mammalian cell types. The conditions noted are these: energy-independent manner; Zhao et al., J. Pharmacol Exp Ther., 304:425-432, 2003; cited from earlier work.
The conditions of data set [4]: cited from earlier work.

Sequence of mu-opioid receptor (P35372 whole entry, species assumed): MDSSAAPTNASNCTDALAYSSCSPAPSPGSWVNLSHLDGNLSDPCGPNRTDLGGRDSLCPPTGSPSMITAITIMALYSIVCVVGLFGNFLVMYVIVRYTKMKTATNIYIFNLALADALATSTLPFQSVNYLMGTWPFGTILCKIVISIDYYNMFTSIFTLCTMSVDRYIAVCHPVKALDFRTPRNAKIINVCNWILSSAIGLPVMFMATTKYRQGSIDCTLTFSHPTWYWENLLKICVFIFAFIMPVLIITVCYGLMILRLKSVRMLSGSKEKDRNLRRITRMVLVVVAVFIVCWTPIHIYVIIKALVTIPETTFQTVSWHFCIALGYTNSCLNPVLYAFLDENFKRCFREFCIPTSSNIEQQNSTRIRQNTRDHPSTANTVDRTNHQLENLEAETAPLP

Consider D-Arg-2′6′-Dmt-Lys-Phe-NH2, for which the “levels of 18:2 cardiolipin” value in data set [1] is given as “normalize”. The “attenuation of the decrease of TAZ1 mRNA” value in the data set on TAZ1 mRNA is 1-1.23 fold. Moreover, on mu-opioid receptor, the “mu-opioid receptor agonist activity” value is on record as “does not have mu-opioid receptor agonist activity”. For the same substance, in data set [2], the LV function entry was “improved” and the “rate of mitochondrial ATP synthesis” value was “improved”.

In the case of 2′,6′-Dmt-D-Arg-Phe-Lys-NH2, in data set [3], the “penetration of cell membranes” value is given as “readily penetrates”.

For the substance cardiolipin, the pK2 in data set [4] (ionization of both phosphates) is given as greater than 7.5. In addition, the pK1 in data set [4] (ionization of one phosphate) is given as 3.
